Conditions: deionized water

Substance: sodium C13 to C15 -acylisethionate [Example 4]
- Water solubility (maximum concentration giving a clear solution): 10%
